Test results: ChEMBL document CHEMBL1127223, “Evaluation of the intestinal permeability and hepatic handling of peptidomimetic analogs” (Bioorg Med Chem Lett, 1993)
In brackets after ≈: the same amount, converted by molar mass.

Experiments:
[1] = Partition coefficient (LogP) value was evaluated; format: physicochemical; settings: octanol/water
[2] = Tested for pKa value of the compound; format: physicochemical
[3] = Tested for aqueous solubility of the compound; format: physicochemical; settings: read-out: S
[4] = target: T1, Renin (Rattus norvegicus) (UniProt P08424); assay: Tested for % inhibition against renin at 10E-6 M concentration; format: functional
T1 sequence (whole entry): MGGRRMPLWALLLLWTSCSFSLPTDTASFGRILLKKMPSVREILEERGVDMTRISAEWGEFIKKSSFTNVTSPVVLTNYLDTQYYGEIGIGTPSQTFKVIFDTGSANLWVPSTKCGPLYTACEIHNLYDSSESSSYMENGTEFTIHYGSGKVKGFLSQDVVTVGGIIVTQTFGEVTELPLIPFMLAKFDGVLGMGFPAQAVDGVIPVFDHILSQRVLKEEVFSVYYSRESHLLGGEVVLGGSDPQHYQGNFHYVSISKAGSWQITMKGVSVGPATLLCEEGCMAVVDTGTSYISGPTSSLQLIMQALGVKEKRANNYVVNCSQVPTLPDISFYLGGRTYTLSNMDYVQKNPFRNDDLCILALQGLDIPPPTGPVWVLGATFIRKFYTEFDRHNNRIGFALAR

[5] = target: T1, Renin (Rattus norvegicus); assay: Tested for percent inhibition against renin at 10 e-6 M concentration in rat; format: functional

logP [1] | pKa [2] | solubility [3] | inhibition [4] | inhibition [5] | SMILES
2 | 9.3 | 5870 µg/mL (≈ 24100 µM) | 0% |  | CC(C)C[C@H](O)[C@H](O)[C@@H](N)CC1CCCCC1
4 |  | < 20 µg/mL |  | 0% | CC(C)C[C@H](O)[C@H](O)[C@H](CC1CCCCC1)NC(=O)OC(C)(C)C
3.1 | 6.3 | 10 µg/mL (≈ 14.1 µM) |  |  | CC(C)C[C@H](O)[C@H](O)[C@H](CC1CCCCC1)NC(=O)[C@H](Cc1csc(N)n1)NC(=O)[C@H](Cc1ccccc1)NS(=O)(=O)N1CCOCC1
